The record followed here is ChEMBL document CHEMBL1154298, “Novel non-peptidic vinylsulfones targeting the S2 and S3 subsites of parasite cysteine proteases” (Bioorg Med Chem Lett, 2009).

Bounds are passed on as bounds.

The target of one test is Cruzipain (Trypanosoma cruzi, UniProt P25779).
The target of another test is Rhodesain (Trypanosoma brucei rhodesiense, UniProt Q95PM0).
Test [1] concerns the target T1, Cathepsin B-like cysteine protease (Trypanosoma brucei, UniProt Q6R7Z5).
T1 sequence (Q6R7Z5 whole entry): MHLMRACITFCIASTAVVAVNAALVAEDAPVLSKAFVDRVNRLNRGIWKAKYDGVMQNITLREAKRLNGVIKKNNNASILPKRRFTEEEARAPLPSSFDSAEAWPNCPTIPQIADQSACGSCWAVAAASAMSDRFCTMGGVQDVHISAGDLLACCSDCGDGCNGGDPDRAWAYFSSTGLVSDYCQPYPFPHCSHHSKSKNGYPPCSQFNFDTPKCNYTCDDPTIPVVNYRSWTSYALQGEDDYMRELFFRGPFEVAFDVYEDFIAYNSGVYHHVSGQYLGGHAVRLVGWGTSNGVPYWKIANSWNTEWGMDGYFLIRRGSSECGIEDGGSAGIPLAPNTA

For test [2], the target named is Rhodesain (Trypanosoma brucei rhodesiense) (UniProt Q95PM0).
Another test relates to Jurkat. Briefly: cells. The settings on record: Homo sapiens.
For test [3], the system named is Trypanosoma brucei brucei. Briefly: microbe, parasite or virus in culture. The conditions noted are these: Jurkat.
Test [4] addresses Cruzipain (Trypanosoma cruzi) (UniProt P25779). The test is described as follows: Inhibition of Trypanosoma cruzi cruzain at 1 uM after 5 mins.

Rhodesain, sequence (Q95PM0 whole entry): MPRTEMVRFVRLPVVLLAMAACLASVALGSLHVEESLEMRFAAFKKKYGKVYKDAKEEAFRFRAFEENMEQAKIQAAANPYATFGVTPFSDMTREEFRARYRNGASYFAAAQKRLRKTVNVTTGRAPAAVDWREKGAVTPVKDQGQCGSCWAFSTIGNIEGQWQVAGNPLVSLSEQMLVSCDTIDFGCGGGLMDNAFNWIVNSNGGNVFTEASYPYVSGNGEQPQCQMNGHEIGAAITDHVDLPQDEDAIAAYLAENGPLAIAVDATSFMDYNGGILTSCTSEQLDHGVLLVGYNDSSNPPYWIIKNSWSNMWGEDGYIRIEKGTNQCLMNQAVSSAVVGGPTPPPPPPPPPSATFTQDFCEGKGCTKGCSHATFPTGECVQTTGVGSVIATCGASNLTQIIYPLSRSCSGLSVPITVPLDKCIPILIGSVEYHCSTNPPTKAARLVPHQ
Rhodesain (Trypanosoma brucei rhodesiense), sequence (Q95PM0 1-450): as the sequence (Q95PM0 whole entry) above
Cruzipain (Trypanosoma cruzi), sequence (P25779 123-467 limits assumed): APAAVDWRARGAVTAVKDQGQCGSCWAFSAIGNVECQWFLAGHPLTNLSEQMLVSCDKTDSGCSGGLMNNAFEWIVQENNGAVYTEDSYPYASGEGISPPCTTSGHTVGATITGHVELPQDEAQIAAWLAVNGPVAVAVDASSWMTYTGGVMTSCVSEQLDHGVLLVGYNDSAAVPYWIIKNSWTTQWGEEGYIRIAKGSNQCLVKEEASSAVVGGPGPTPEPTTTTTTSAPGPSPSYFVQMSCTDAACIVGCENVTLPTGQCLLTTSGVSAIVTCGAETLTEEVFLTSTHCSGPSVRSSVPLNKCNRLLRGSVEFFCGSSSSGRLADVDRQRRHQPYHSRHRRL
Cruzipain, sequence (P25779 whole entry): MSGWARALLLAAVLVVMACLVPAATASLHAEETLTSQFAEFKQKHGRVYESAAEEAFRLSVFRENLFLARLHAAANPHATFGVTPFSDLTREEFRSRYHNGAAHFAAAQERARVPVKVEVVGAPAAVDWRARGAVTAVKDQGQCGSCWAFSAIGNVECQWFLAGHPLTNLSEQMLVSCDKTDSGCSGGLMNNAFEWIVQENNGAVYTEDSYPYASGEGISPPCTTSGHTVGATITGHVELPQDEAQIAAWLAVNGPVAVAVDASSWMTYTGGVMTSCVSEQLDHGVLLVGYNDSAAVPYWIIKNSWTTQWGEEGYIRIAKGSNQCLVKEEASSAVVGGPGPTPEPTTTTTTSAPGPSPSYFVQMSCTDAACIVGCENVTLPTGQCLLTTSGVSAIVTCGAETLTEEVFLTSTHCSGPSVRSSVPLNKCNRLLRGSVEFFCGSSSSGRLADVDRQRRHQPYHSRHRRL

Take `O=C(N[C@H](/C=C/S(=O)(=O)c1ccccc1)CCc1ccccc1)[C@@H]1CCCC[C@H]1C(=O)c1ccc(Cl)cc1`: the figures for the IC50 (at Cruzipain; at Rhodesain; in test [1]) were 50 nM, 100 nM and 16 µM, respectively. Also, at Rhodesain, the affinity, expressed as Ki, was 0.8 µM. The compound also gave a Kinact in test [2] of 0.00051 s⁻¹.
On to `O=C(N[C@H](/C=C/S(=O)(=O)c1ccccc1)CCc1ccccc1)c1cc(-c2cccnc2)no1`, for which the IC50 (as a rule, the midpoint of a concentration-inhibition curve) on Cruzipain is 1000 nM; against Rhodesain it was 10 nM; in test [1] it was > 100 µM; in the test with Jurkat it was > 100 µM. Besides, in test [3], the concentration for 50% growth inhibition (GI50) (in general, the concentration that inhibits growth by half) was > 100 µM.
In the case of `Cc1nc(-c2cnccn2)sc1C(=O)N[C@H](/C=C/S(=O)(=O)c1ccccc1)CCc1ccccc1`, the IC50 at Cruzipain is 1000 nM; on Rhodesain, 10 nM; in test [1] it was > 100 µM; in the test with Jurkat, > 100 µM. Also, the affinity on Rhodesain corresponds to a Ki of 4.77 µM. Further, the Kinact in test [2] was 0.0079 s⁻¹. The compound further had a GI50 in test [3] of 7 µM.
As for `O=C(N[C@H](/C=C/S(=O)(=O)c1ccccc1)CCc1ccccc1)c1ccccc1C(=O)c1ccc(Cl)cc1`, the inhibition – broadly, the relative decrease from the control value, in per cent – in test [4] came out at 3%.
In the case of `O=C(N[C@H](/C=C/S(=O)(=O)c1ccccc1)CCc1ccccc1)[C@H]1CCCC[C@@H]1C(=O)c1ccc(Cl)cc1`, the values for the IC50 (against Cruzipain; on Rhodesain; in test [1]) were > 100000 nM, 56000 nM and > 100 µM, respectively. The Ki (commonly a measure of affinity in units of concentration, obtained from inhibition or displacement) at Rhodesain was 4.9 µM. The Kinact in test [2] is 0.0007 s⁻¹.
In test [4], `CC(C)(C)c1cc(C(=O)N[C@H](/C=C/S(=O)(=O)c2ccccc2)CCc2ccccc2)n(Cc2ccccc2)n1` came in with an inhibition of 2%.
For the compound `Cc1onc(-c2ccc(F)cc2)c1C(=O)N[C@H](/C=C/S(=O)(=O)c1ccccc1)CCc1ccccc1`, in test [4], the inhibition worked out at 12.5%.
With `O=C(N[C@H](/C=C/S(=O)(=O)c1ccccc1)CCc1ccccc1)c1cc(-c2ccncc2)no1`, the IC50 is 5000 nM against Cruzipain, 50 nM on Rhodesain, > 100 µM in test [1] and > 100 µM with Jurkat. This compound showed a Ki at Rhodesain of 16.2 µM. The compound further showed a Kinact in test [2] of 0.0091 s⁻¹. Also, it took 10 µM to inhibit growth in test [3] by half (GI50). In addition, the inhibition in test [4] was < 5%.
For the compound `Cc1nc(-c2ccccc2)sc1C(=O)N[C@H](/C=C/S(=O)(=O)c1ccccc1)CCc1ccccc1`, the IC50 against Cruzipain was 10000 nM; at Rhodesain, < 6 nM; in test [1] it was > 100 µM; in the test on Jurkat, > 100 µM. On Rhodesain, this compound registered a Ki of 0.32 µM. In addition, the Kinact in test [2] stood at 0.0018 s⁻¹. The GI50 in test [3] was > 100 µM. For the same compound, in test [4], the inhibition is < 5%.
In the case of `CN1CCN(C(=O)N[C@@H](Cc2ccccc2)C(=O)N[C@H](/C=C/S(=O)(=O)c2ccccc2)CCc2ccccc2)CC1` [K-777], in test [1], half-maximal inhibition (IC50) was put at 4 µM. Also, the GI50 in test [3] is 7 µM.
Take `O=C(N[C@H](/C=C/S(=O)(=O)c1ccccc1)CCc1ccccc1)c1cc(-c2ccccc2)no1`: the concentration for half-maximal inhibition (IC50) at Cruzipain was 2000 nM; against Rhodesain, 10 nM; in test [1] it was 40 µM; in the test on Jurkat it was > 100 µM. Besides, on Rhodesain, the Ki turned out to be 13 µM. The Kinact in test [2] was 0.0031 s⁻¹. Also, the GI50 in test [3] is > 100 µM.
Turning to `Cc1nc(-c2cccnc2)sc1C(=O)N[C@H](/C=C/S(=O)(=O)c1ccccc1)CCc1ccccc1`, the IC50 on Cruzipain was 2000 nM; on Rhodesain it was 30 nM; in test [1], > 100 µM; with Jurkat, 98 µM. In test [3], the GI50 was found to be 20 µM.
Regarding `O=C(N[C@H](/C=C/S(=O)(=O)c1ccccc1)CCc1ccccc1)c1cc(-c2ccccn2)no1`, the IC50 on Cruzipain is 6000 nM; against Rhodesain, 50 nM; in test [1], > 100 µM; in the test with Jurkat it was > 100 µM. The compound also had a Ki on Rhodesain of 7.4 µM. This compound gave a Kinact in test [2] of 0.0038 s⁻¹. Also, in test [3], the GI50 is 10 µM. Moreover, the inhibition in test [4] is < 5%.
